The conditions of assay [1]: prior art; cited from earlier work.
The next assay has as its system dogs. Conditions: prior art; cited from earlier work.
Assay [2] has as its system tetrabenazine-induced sedation and depression in mice. Briefly: Antagonism of tetrabenazine-induced depression in mice (prevention of ptosis and exploratory loss), orally at 1 hour post-drug. The assay is classed as in vivo, mice (Carworth CF1 S female). The following applies: Mus musculus, oral, tetrabenazine 32 mg/kg intraperitoneally 30 minutes after drug. The protocol: (Everett, "The Dopa Response Potentiation Test and Its Use in Screening for Antidepressant Drugs", pp. 164-167 in "Antidepressant Drugs" [Proceedings of the First International Symposium], S. Garattini and M. N. G. Dukes, eds., 1967). Groups of 10 Carworth CF1 S female mice, 18-21 g each, were fasted 1.5 hours and were intubated with antagonist compounds at oral doses of 0, 5, 25, and 125 mg/kg or 0, 1, 3, 9, 27, and 81 mg/kg in 0.20 ml of 1% Methocel (methylcellulose). The mice were challenged 30 minutes later with tetrabenazine (as the methane-sulfonate), 32 mg/kg intraperitoneally (dissolved in 0.20 ml 0.05 M KCl at pH 2.0). One hour after antagonist (30 minutes after tetrabenazine), the mice were examined for signs of exploratory activity and ptosis (eyelid closure). Normal exploratory activity (relief from sedation) was recorded when a mouse lifted by the tail from a group of 10 in a testing box and placed on a stainless steel testing box lid (12.5"×8" with 0.33" mesh) either turned its head horizontally 30° in both directions or moved to the edge of the screen within 10 seconds after being placed on the screen. Relief from ptosis was recorded when exactly two seconds after placing the mouse facing the observer, lid closure was less than 50% in both eyes. For comparison, the marketed antidepressant amitriptylene was also tested, and an ED50 (effective dose in 50% of the cases) was determined. The lower the ED50, the better the antidepressant.

The conditions of assay [3]: prior art; cited from earlier work. This is another data set of the same source.
Setting [4] is: read-out: ED50 For Prevention of Exploratory Loss.
[5] abbreviates: read-out: ED50 For Prevention of Ptosis.

Here are results for 7 molecules from patent US4343812A, “Antidepressant 2-amino-and-2-(substituted amino)-cis-hexahydro-carbazoles, compositions and use” (E. I. Du Pont de Nemours and Company, priority 1980, dated 1982).

Like-named read-outs stand apart in the source and are kept apart here.

As for `CN(C)C1CCc2[nH]c3ccccc3c2C1` (centres unmarked), in assay [1], the “analgetic and psychotropic activity” value is “analgetic and psychotropic activity”.
As for `CN(C)C1CCc2[nH]c3cc(O)ccc3c2C1` (centres unmarked), the cardiotonic effects result in the assay with dogs was “cardiotonic effects”.
In the case of `Cl.NC1CCc2c([nH]c3ccccc23)C1` (centres unmarked) [Compound 3a, 2,3,4,9-Tetrahydro-1H-carbazol-2-amine hydrochloride], the ED50 in assay [2] (setting [4]) worked out at 8 mg/kg; in assay [2] (setting [5]), 4 mg/kg.
For `CC(=O)NC1CCc2c([nH]c3cc(Cl)cc(Cl)c23)C1` (centres unmarked) [Compound 2f], in that order: 4.7 mg/kg and 3.3 mg/kg.
`CCOC(=O)NC1CCc2c([nH]c3ccccc23)C1` (centres unmarked) [Compound 3e, (1,3,4,9-tetrahydro-2H-carbazol-2-yl)carbamic acid, ethyl ester]: the ED50 in assay [2] (setting [4]) was greater than 81 mg/kg; in assay [2] (setting [5]), 40 mg/kg.
Turning to `CNCCCC1CN(c2ccccc2)c2ccccc21` (centres unmarked), the antidepressant activity entry in assay [3] is listed as “antidepressant activity”.
For `CC(=O)NC1CCc2c([nH]c3ccc(Cl)cc23)C1` (centres unmarked) [Compound 2c], the median effective dose (ED50) was determined as 6.5 mg/kg in assay [2] (setting [4]) and 2.4 mg/kg in assay [2] (setting [5]).
